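Briefly, cells in 96-well plates were exposed to five compound concentrations for 48 h, and endpoints were estimated by linear interpolation. Abbreviation: GI50, concentration required for 50% inhibition of growth. TGI: concentration producing complete growth inhibition.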
Columns and labels:
Assay in all cases: NCI-60 cell line screen, 48 h
HCT-116 colon = system: HCT-116 colon
OVCAR-8 ovarian = system: OVCAR-8 ovarian
SF-268 CNS = system: SF-268 CNS
HOP-62 NSCLC = system: HOP-62 NSCLC
M14 melanoma = system: M14 melanoma
HCC-2998 colon = system: HCC-2998 colon
EKVX NSCLC = system: EKVX NSCLC
ACHN renal = system: ACHN renal
CCRF-CEM leukemia = system: CCRF-CEM leukemia
SK-MEL-28 melanoma = system: SK-MEL-28 melanoma
A549 NSCLC = system: A549 NSCLC
SNB-19 CNS = system: SNB-19 CNS
SK-MEL-5 melanoma = system: SK-MEL-5 melanoma
HL-60(TB) leukemia = system: HL-60(TB) leukemia
CAKI-1 renal = system: CAKI-1 renal
NCI-H226 lung = system: NCI-H226 lung
NCI-H522 lung = system: NCI-H522 lung
SF-539 CNS = system: SF-539 CNS
SR leukemia = system: SR leukemia
NCI-H23 lung = system: NCI-H23 lung
T-47D breast = system: T-47D breast
786-0 renal = system: 786-0 renal
PC-3 prostate = system: PC-3 prostate
NCI/ADR-RES ovarian = system: NCI/ADR-RES ovarian
HS 578T breast = system: HS 578T breast
OVCAR-3 ovarian = system: OVCAR-3 ovarian
SK-OV-3 ovarian = system: SK-OV-3 ovarian
IGROV1 ovarian = system: IGROV1 ovarian
TK-10 renal = system: TK-10 renal
KM12 colon = system: KM12 colon
U251 CNS = system: U251 CNS
MALME-3M melanoma = system: MALME-3M melanoma
BT-549 breast = system: BT-549 breast
COLO 205 colon = system: COLO 205 colon
MDA-MB-435 = system: MDA-MB-435
HCT-15 colon = system: HCT-15 colon
MOLT-4 leukemia = system: MOLT-4 leukemia
MCF7 breast = system: MCF7 breast
OVCAR-4 ovarian = system: OVCAR-4 ovarian
SNB-75 CNS = system: SNB-75 CNS
A498 renal = system: A498 renal
DU-145 prostate = system: DU-145 prostate
MDA-MB-231 breast = system: MDA-MB-231 breast
UACC-257 melanoma = system: UACC-257 melanoma
HT29 colon = system: HT29 colon
OVCAR-5 ovarian = system: OVCAR-5 ovarian
SN12C renal = system: SN12C renal
NCI-H460 lung = system: NCI-H460 lung
UO-31 renal = system: UO-31 renal
HOP-92 NSCLC = system: HOP-92 NSCLC
SW-620 colon = system: SW-620 colon
RXF 393 renal = system: RXF 393 renal
MDA-MB-468 breast = system: MDA-MB-468 breast
K-562 leukemia = system: K-562 leukemia
SF-295 CNS = system: SF-295 CNS
SK-MEL-2 melanoma = system: SK-MEL-2 melanoma
LOX IMVI melanoma = system: LOX IMVI melanoma
RPMI-8226 leukemia = system: RPMI-8226 leukemia
UACC-62 melanoma = system: UACC-62 melanoma

Molecule COc1cc(-c2nc3cc(Cl)c(Cl)cc3[nH]2)ccc1OCc1nnc(-c2ccc(Br)cc2)o1 has a GI50 (HCT-116 colon) of 4.43 µM, a TGI (HCT-116 colon) of 31.7 µM and a GI50 (OVCAR-8 ovarian) of 2850 nM. For the same molecule, the TGI (OVCAR-8 ovarian) was 7.78 µM, the GI50 (SF-268 CNS) was 6.22 µM and the TGI (SF-268 CNS) was > 100 µM. It also gave a GI50 (HOP-62 NSCLC) of 4.17 µM, a TGI (HOP-62 NSCLC) of 17.8 µM and a GI50 (M14 melanoma) of 6.68 µM. For the same molecule, the TGI (M14 melanoma) was 25.3 µM, the GI50 (HCC-2998 colon) was 29.2 µM and the TGI (HCC-2998 colon) was > 100 µM. The GI50 (EKVX NSCLC) was 13.3 µM, the TGI (EKVX NSCLC) was > 100 µM and the GI50 (ACHN renal) was 2190 nM. The TGI (ACHN renal) was 4.99 µM, the GI50 (CCRF-CEM leukemia) was 6.07 µM and the TGI (CCRF-CEM leukemia) was > 100 µM. For the same molecule, the GI50 (SK-MEL-28 melanoma) was 3.59 µM, the TGI (SK-MEL-28 melanoma) was 19 µM and the GI50 (A549 NSCLC) was 7.14 µM. The TGI (A549 NSCLC) was > 100 µM, the GI50 (SNB-19 CNS) was 14.7 µM and the TGI (SNB-19 CNS) was > 100 µM. It also gave a GI50 (SK-MEL-5 melanoma) of 3.16 µM, a TGI (SK-MEL-5 melanoma) of 13.2 µM and a GI50 (HL-60(TB) leukemia) of 2610 nM. It also gave a TGI (HL-60(TB) leukemia) of 7.52 µM, a GI50 (CAKI-1 renal) of 13 µM and a TGI (CAKI-1 renal) of 28.3 µM. For the same molecule, the GI50 (NCI-H226 lung) was 1820 nM, the TGI (NCI-H226 lung) was 4.81 µM and the GI50 (NCI-H522 lung) was 4.53 µM. For the same molecule, the TGI (NCI-H522 lung) was > 100 µM, the GI50 (SF-539 CNS) was 1810 nM and the TGI (SF-539 CNS) was 3.51 µM. It also gave a GI50 (SR leukemia) of 2210 nM, a TGI (SR leukemia) of 5.9 µM and a GI50 (NCI-H23 lung) of 4.99 µM. For the same molecule, the TGI (NCI-H23 lung) was > 100 µM, the GI50 (T-47D breast) was 2060 nM and the TGI (T-47D breast) was 4.95 µM. It also gave a GI50 (786-0 renal) of 3.55 µM, a TGI (786-0 renal) of 13.1 µM and a GI50 (PC-3 prostate) of 4.27 µM. For the same molecule, the TGI (PC-3 prostate) was > 100 µM, the GI50 (NCI/ADR-RES ovarian) was 3.42 µM and the TGI (NCI/ADR-RES ovarian) was > 100 µM. For the same molecule, the GI50 (HS 578T breast) was 2720 nM, the TGI (HS 578T breast) was 8.27 µM and the GI50 (OVCAR-3 ovarian) was 3.33 µM. The TGI (OVCAR-3 ovarian) was 10.9 µM, the GI50 (SK-OV-3 ovarian) was 11.5 µM and the TGI (SK-OV-3 ovarian) was 38.3 µM. The GI50 (IGROV1 ovarian) was 11.5 µM, the TGI (IGROV1 ovarian) was > 100 µM and the GI50 (TK-10 renal) was 4.37 µM. The TGI (TK-10 renal) was 17.5 µM, the GI50 (KM12 colon) was 52 µM and the TGI (KM12 colon) was > 100 µM. The GI50 (U251 CNS) was 3.82 µM, the TGI (U251 CNS) was 20 µM and the GI50 (MALME-3M melanoma) was 3.25 µM. The TGI (MALME-3M melanoma) was 16.4 µM, the GI50 (BT-549 breast) was 3.2 µM and the TGI (BT-549 breast) was 7.74 µM. The GI50 (COLO 205 colon) was 24.6 µM, the TGI (COLO 205 colon) was > 100 µM and the GI50 (MDA-MB-435) was 3.97 µM. It also gave a TGI (MDA-MB-435) of 20 µM, a GI50 (HCT-15 colon) of 2530 nM and a TGI (HCT-15 colon) of 7.36 µM. For the same molecule, the GI50 (MOLT-4 leukemia) was 3.72 µM, the TGI (MOLT-4 leukemia) was > 100 µM and the GI50 (MCF7 breast) was 3.28 µM. It also gave a TGI (MCF7 breast) of 27.5 µM, a GI50 (OVCAR-4 ovarian) of 1920 nM and a TGI (OVCAR-4 ovarian) of 4.12 µM. The GI50 (SNB-75 CNS) was 1560 nM, the TGI (SNB-75 CNS) was 3.87 µM and the GI50 (A498 renal) was 2900 nM. The TGI (A498 renal) was 9.17 µM, the GI50 (DU-145 prostate) was 10.1 µM and the TGI (DU-145 prostate) was > 100 µM. It also gave a GI50 (MDA-MB-231 breast) of 2220 nM, a TGI (MDA-MB-231 breast) of 5.3 µM and a GI50 (UACC-257 melanoma) of 11.7 µM. The TGI (UACC-257 melanoma) was 35.6 µM, the GI50 (HT29 colon) was 3.61 µM and the TGI (HT29 colon) was > 100 µM. The GI50 (OVCAR-5 ovarian) was 5.59 µM, the TGI (OVCAR-5 ovarian) was > 100 µM and the GI50 (SN12C renal) was 2560 nM. For the same molecule, the TGI (SN12C renal) was 7.33 µM, the GI50 (NCI-H460 lung) was 6.43 µM and the TGI (NCI-H460 lung) was > 100 µM. For the same molecule, the GI50 (UO-31 renal) was 1890 nM, the TGI (UO-31 renal) was 4.61 µM and the GI50 (HOP-92 NSCLC) was 2350 nM. The TGI (HOP-92 NSCLC) was 7.81 µM, the GI50 (SW-620 colon) was 5.07 µM and the TGI (SW-620 colon) was > 100 µM. It also gave a GI50 (RXF 393 renal) of 1870 nM, a TGI (RXF 393 renal) of 4.61 µM and a GI50 (MDA-MB-468 breast) of 5.98 µM. The TGI (MDA-MB-468 breast) was 28.4 µM, the GI50 (K-562 leukemia) was 4.8 µM and the TGI (K-562 leukemia) was > 100 µM. It also gave a GI50 (SF-295 CNS) of 3.13 µM, a TGI (SF-295 CNS) of 10.7 µM and a GI50 (SK-MEL-2 melanoma) of 15.7 µM. The TGI (SK-MEL-2 melanoma) was 35 µM, the GI50 (LOX IMVI melanoma) was 2930 nM and the TGI (LOX IMVI melanoma) was 10.8 µM. It also gave a GI50 (RPMI-8226 leukemia) of 2680 nM, a TGI (RPMI-8226 leukemia) of 8.25 µM and a GI50 (UACC-62 melanoma) of 3.05 µM. For the same molecule, the TGI (UACC-62 melanoma) was 13.5 µM.
